{
  "source": "paper PMC10812785",
  "about": "“Structures, Interactions and Activity of the N-Terminal Truncated Variants of Antimicrobial Peptide Thanatin” (Antibiotics, 2024)",
  "molecules": {"B1": {"name": "PM15, 15-residue N-terminal truncated analog of thanatin (peptide)", "peptide": "PIIYCNRRTGKCQRM", "notes": "thanatin, Podisus maculiventris (spined soldier bug), the C-terminal 15 residues of the 21-residue peptide (P7-M21 of thanatin); also called 15-residue thanatin peptide; source: synthetic peptide, bought: GLBiochem (Shanghai, China)"}},
  "key": {"[1]": {"tested_on": "Acenobacter baumannii ATCC BAA-1798", "assay_type": "cell-based, A. baumannii", "text": "(§1) Chemically synthesized PM15, PM15Y and PM15A peptides were obtained from GLBiochem^TM (Shanghai, China). Molecular weight of the peptides was confirmed by mass spectrometry. Bacterial strains were obtained from the American Type Culture Collection (ATCC, Manassas, VA, USA). Mueller–Hinton (MH) broth was purchased from Sigma-Aldrich^TM (Saint Louis, MO, USA) and Millipore-Sigma^TM (Saint Louis, MO, USA). 1-N-phenylnaphthylamine (NPN) and LPS (E. coli O111:B4) were purchased from Sigma Aldrich^TM.\nBacterial growth inhibition of PM15, PM15A and PM15Y peptides was estimated against a panel of bacterial strains, namely, E. coli ATCC25922, S. enterica ATCC 14028, K. pneumoniae ATCC 13883, A. baumannii ATCC BAA-1798, S. pyogenes ATCC 19615 and E. faecalis ATCC 29212, by using the broth dilution assay determining minimum inhibitory concentration (MIC). Typically, overnight bacterial cultures were grown to mid-log phase at 37 °C and then diluted in Mueller–Hinton (MH) broth to OD600 ~ 0.002. […] Bacterial inhibition was determined by absorbance of 96-well plates at OD600 nm by using a Cytation spectrophotometer (Agilent, Santa Clara, CA, USA). The minimum peptide concentration showing complete inhibition of bacterial growth was determined as the MIC value."}, "[2]": {"tested_on": "E. coli cells", "experiment": "Zeta potential of E. coli cells (surface charge neutralization)", "assay_type": "cell-based", "details": "10 mM sodium phosphate buffer, pH 7; peptide 2-32 μM; three replicates of 100 runs; Figure 1A", "description": "All zeta potential measurements were performed on a Zeta Sizer Nano ZS (Malvern Instruments, Worcestershire, UK) equipped with a 633 nm He laser using zeta cells with gold electrodes. Typically, E. coli cells at a mid-log culture in LB media were harvested by centrifugation at 5000 rpm for 10 min and resuspended in 10 mM sodium phosphate buffer, pH 7. Zeta potential value of the bacterial cell suspension was determined for the free cells and with subsequent additions of peptide (2 μM to 32 μM). For each concentration, 100 runs were carried out and three replicates were executed."}, "[3]": {"experiment": "ITC of peptide/LPS binding", "set-up": "species or system E. coli", "details": "10 mM sodium phosphate, pH 7.0, 37 °C", "text": "as §1\n(§2) ITC experiments were conducted by using a MicroCal ITC 200 calorimeter. Samples, LPS and peptides, were prepared in 10 mM sodium phosphate buffer, pH 7.0. LPS (50 µM) was placed in the sample cell, while the syringe contained 1 mM of peptide. In an individual experiment, 2.0 μL of peptide was titrated, with a total of 20 titrations, into the sample cell containing LPS at 37 °C with stirring speed adjusted to 750 rpm. For ITCs of peptides/LptAm, samples were prepared in 50 mM sodium phosphate buffer, 150 mM NaCl, pH 7.0. 25 μM of LptAm was loaded into the sample cell, whereas 250 μM of PM15 and PM15Y was placed in the syringe. ITC titrations were performed with 20 injections of 2 µL of peptide into sample cells at 25 °C with a stirring speed of 750 rpm. ITC data were analyzed by using a single site binding model in MicroCal Origin 5.0 software to obtain the association constant (Ka) and enthalpy change (ΔH). Other binding parameters, namely, dissociation constant (Kd), Gibbs free energy (ΔG) and entropy change (TΔS), were determined indirectly from thermodynamics equations."}, "[4]": {"target": "T1, LptAm protein of E. coli (Escherichia coli, UniProt P0ADV1)", "T1 construct": "Expression and purification of LptAm protein (residues 28–159), with a six His-tag (SGRVEHHHHHH) at the C-terminus; made in house; host or cells: E. coli BL21", "experiment": "ITC of peptide/LptAm binding", "details": "50 mM sodium phosphate, 150 mM NaCl, pH 7.0, 25 °C", "description": "as §2\nExpression and purification of LptAm protein (residues 28–159), with a six His-tag (SGRVEHHHHHH) at the C-terminus, was carried out by using a previously established method. Briefly, plasmid DNA coding for LptAm gene was transformed into E. coli BL21 competent cells in LB agar plates containing 100 µg/mL of ampicillin. Protein production from expressing E. coli was induced by 1 mM isopropyl β-d-1-thiogalactopyranoside (IPTG) at an OD600 value of 0.6–0.8 at 18 °C for 18 h. The bacteria cells were centrifuged at 6000 rpm, 4 °C for 15 min and resuspended in a lysis buffer (100 mM HEPES, 500 mM NaCl, 10 mM imidazole, pH 8). Bacterial cells were lysed by sonication on ice at 25 Amp for 1 h, the lysate was centrifuged at 18,000 rpm, 4 °C for 30 min to remove cellular debris. The cell supernatant was applied through Ni-NTA (Qiagen, Germantown, TN, USA) beads thrice before washing it with increasing concentrations of imidazole. […]"}, "[5]": {"tested_on": "bacteria", "details": "cited from earlier work; for antibacterial activity, in words: N-terminal deletion fragment of thanatin", "text": "Antimicrobial peptides (AMPs) are found in all life forms and constitute the first line of defense as a part of innate immunity in higher organisms, including humans. As a mode of action, a significant number of cationic AMPs disrupt membrane structures including the LPS–outer membrane of Gram-negative bacteria. Thanatin, a 21-residue antimicrobial peptide, was originally identified from the hemolymph of the spined soldier bug, or Podisus maculiventris. […] Further, to understand residue length-dependent antibacterial activity, here, we investigated a 15-residue N-terminal peptide fragment, or PM15 (PIIYCNRRTGKCQRM), of thanatin. We also examined two analog peptides, PM15Y and PM15A, to replace residue Pro. […] In this study, we have examined 15-residue thanatin-derived peptide, or PM15, and two analogs, PM15Y and PM15A. PM15 and analog peptides are able to exert antibacterial activity against Gram-negative and Gram ..."}, "[6]": {"tested_on": "LPS-outer membrane; LptA and LptD", "details": "cited from earlier work", "text": "(§3) Antimicrobial peptides (AMPs) are found in all life forms and constitute the first line of defense as a part of innate immunity in higher organisms, including humans. As a mode of action, a significant number of cationic AMPs disrupt membrane structures including the LPS–outer membrane of Gram-negative bacteria. Thanatin, a 21-residue antimicrobial peptide, was originally identified from the hemolymph of the spined soldier bug, or Podisus maculiventris. Recent studies have discovered and characterized thanatin orthologous AMPs from other speci ..."}, "[7]": {"tested_on": "bacterial load from model animals", "details": "ref [29],[30],[31]; cited from earlier work", "text": "as §3"}, "[8]": {"target": "T2, LptAm, a monomeric functional (truncated) variant of LptA (E. coli, UniProt P0ADV1 28-159)", "T2 construct": "LptA, periplasmic component of the LPS transport (Lpt) complex, E. coli, residues 28-159; no removal of the His tag is described; source: E. coli BL21, purified (Ni-NTA, size-exclusion chromatography)", "T2 sequence (looked up)": "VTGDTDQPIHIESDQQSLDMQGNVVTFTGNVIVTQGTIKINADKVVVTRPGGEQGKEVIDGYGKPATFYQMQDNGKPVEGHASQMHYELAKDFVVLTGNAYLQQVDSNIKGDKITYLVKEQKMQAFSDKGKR", "experiment": "ITC; 250 uM peptide in the syringe titrated into 25 uM LptAm in the cell; 50 mM sodium phosphate, 150 mM NaCl, pH 7.0, 25 °C; single site binding model; apparent Kd", "details": "both partners purified"}, "[9]": {"details": "1 mM peptide into 50 μM E. coli LPS (O111:B4), single site binding model"}, "[10]": {"details": "LPS, determined indirectly from thermodynamics equations"}},
  "note": "Like-named read-outs stand apart in the source and are kept apart here. Bridge positions count the residues as written; N and C are the ends. Ends that are not written are not given here.",
  "data": [
    {"molecule": "CC[C@H](C)[C@H](NC(=O)[C@@H]1CCCN1)C(=O)N[C@H](C(=O)N[C@@H](Cc1ccc(O)cc1)C(=O)N[C@H]1CSSC[C@@H](C(=O)N[C@@H](CCC(N)=O)C(=O)N[C@@H](CCCNC(=N)N)C(=O)N[C@@H](CCSC)C(=O)O)NC(=O)[C@H](CCCCN)NC(=O)CNC(=O)[C@H]([C@@H](C)O)NC(=O)[C@H](CCCNC(=N)N)NC(=O)[C@H](CCCNC(=N)N)NC(=O)[C@H](CC(N)=O)NC1=O)[C@@H](C)CC", "note": "[PM15]", "values": [
      {"measurement": "MIC", "setting": "[1]", "value": ">16 (>16) µM"},
      {"measurement": "change in zeta potential of E. coli cells, in words", "setting": "[2]", "value": "increase in zeta potential in a dose-dependent manner"},
      {"measurement": "Kd", "setting": "[3]; [9]", "value": 570, "unit": "nM"},
      {"measurement": "ΔH", "setting": "[3]; [9]", "value": -7.33, "unit": "kcal/mol"},
      {"measurement": "TΔS", "setting": "[3]; [10]", "value": 1.54, "unit": "kcal/mol"},
      {"measurement": "ΔG", "setting": "[3]; [10]", "value": -8.87, "unit": "kcal/mol"},
      {"measurement": "ΔH", "setting": "[4]; 250 μM peptide into 25 μM LptAm, single site binding model", "value": -2.93, "unit": "kcal/mol"},
      {"measurement": "LptAm binding, in words", "setting": "[4]", "value": "bind to LptAm with high affinity"},
      {"measurement": "TΔS", "setting": "[4]; LptAm, determined indirectly from thermodynamics equations", "value": 6.23, "unit": "kcal/mol"}
    ]},
    {"molecule": "IIYCNRRTGKCQRM [14-residue (IIYCNRRTGKCQRM) fragment, 14-residue (…) fragment of thanatin]", "values": [
      {"measurement": "antibacterial activity, in words", "setting": "[5]; ref [23],[36]", "value": "largely inactive"},
      {"measurement": "antibacterial activity, in words", "setting": "[5]; ref [23],[36], listed as 14-residue thanatin", "value": "inactive peptide"}
    ]},
    {"molecule": "VPIIYCNRRTGKCQRM [16-residue fragment, 16-residue fragment (…) of thanatin]", "values": [
      {"measurement": "antibacterial activity, in words", "setting": "[5]; ref [23],[26],[31],[36]", "value": "potent antibacterial activity"},
      {"measurement": "antibacterial activity, in words", "setting": "[5]; ref [23],[31],[36]", "value": "demonstrated antibacterial activity"}
    ]},
    {"molecule": "thanatin: 21-residue antimicrobial peptide from the hemolymph of the spined soldier bug, Podisus maculiventris", "values": [
      {"measurement": "killing of Gram-negative bacteria, in words", "setting": "[5]; Enterobacteriaceae, including drug-resistant strains, ref [26],[28],[30],[31]", "value": "extremely potent in selectively killing Gram-negative bacteria"},
      {"measurement": "antimicrobial activity, in words", "setting": "[5]; Gram-negative and Gram-positive bacteria and several strains of fungi, ref [23],[26],[27],[28],[29],[30]", "value": "broad spectrum of antimicrobial activity"},
      {"measurement": "inhibition of outer-membrane biogenesis, in words", "setting": "[6]; LptA and LptD, LPS transport, ref [33],[34],[35]", "value": "inhibits outer-membrane biogenesis by disrupting protein complexes (LptA and LptD)"},
      {"measurement": "interaction with LPS-outer membrane, in words", "setting": "[6]; ref [27],[28],[32]", "value": "interacted with the LPS–outer membrane, facilitating the permeabilizing of the OM barrier"},
      {"measurement": "clearing bacterial load, in words", "setting": "[7]", "value": "promising activity profile"}
    ]},
    {"molecule": "B1", "values": [
      {"measurement": "Kd", "setting": "[8]", "value": 600, "unit": "nM"},
      {"measurement": "dH", "setting": "[8]", "value": -2.93, "unit": "kcal/mol"}
    ]},
    {"molecule": "YIIYCNRRTGKCQRM (disulfide 5-12)", "note": "[PM15Y, P1 to Y substituted variant of PM15]", "values": [
      {"measurement": "dH", "setting": "[8]", "value": -11.8, "unit": "kcal/mol"}
    ]}
  ]
}
